Assay results: patent publication US20090093669A1, “MAGNETOPHORESIS APPARATUS AND METHOD OF USE” (priority 2007, published 2009)
Where two headings read alike, the source gives them in different places.

Experiments:
[1] = assay type: in vitro ADME, beef
Text: Each individual magnet had: • a residual induction value of at least 1,500 mT (magnetization of 1,200,000 amp/meter); • diameter of about 12.7 mm; and a • thickness of about 6.35 mm.
The magnets were arranged in an alternating polarity sequence on an iron flux ring (the iron flux ring is shaped like a washer). This positioning increased the field in the direction away from the flux ring. This arrangement is similar to the standard QuadraBloc® sold by Gradient Technologies, LLC. The magnetic field at the center of a North Pole of the magnets was about 530 mT. The array was placed over the drug such that the face of the magnets (away from the flux ring and towards the skin) covered the drug solution applied to the test material or skin. This configuration is described in U.S. applications Ser. No. 11/469,346 which is incorporated by reference herein.
The TENS unit used in the following experiments was set for 20 volts with a pulse rate of 100 Hz and a pulse width of 200 microseconds. Other usable settings will influence the results as the strength of the field is directly proportional to all of the variables and increasing any of the variables will drive the drug faster. The settings are important for treating underlying pain; however, when drugs are being applied at the same time as the TENS is being utilized to treat pain, it generally is not desirable to use the highest settings. […]
The test system used to determine the rates of dispersion in tissue was commercial homogenized beef tissue with various levels of lipids (fat) to cells compressed into 3 mm sheets. […] The beef tissue was purchased with selected levels of fat present in the samples as measured by the producer. […] The drug or formulation to be tested was placed on top of the tissue stack and then after a specified time the stack was separated and the individual 3 mm layers (bologna sheet/slice) were analyzed for the drug content. The drug migration was analyzed by extracting the tissue at the various depths with solvents and then quantifying the drug in that sample. […]

[2] = TENS electric field applied (20 volts, 100 Hz, 200 microseconds), fat free/low fat beef tissue
[3] = magnetic field applied, fat free/low fat beef tissue
[4] = quadrapolar magnetic field applied (530 mT at surface), fat free/low fat beef tissue
[5] = control test, no applied field, fat free/low fat (lean) beef tissue, unit not given

enhancement of diffusion coefficient, TENS versus control (cattle)	enhancement of diffusion coefficient, magnetic field versus control (cattle)	Molecule	diffusion coefficient Dx [2] [mm^2/min]	enhancement of diffusion coefficient, magnetic field versus control [3]	diffusion coefficient Dx [4] [mm^2/min]	diffusion coefficient [5]	other results
6-8 times	4-5 times	CCCCN1CCCCC1C(=O)Nc1c(C)cccc1C (stereo not drawn) [bupivacaine]					
6-8 times	4-5 times	O=C(c1ccccc1)c1ccc2n1CCC2C(=O)O (stereo not drawn) [ketorolac]					
		CCN(CC)CC(=O)Nc1c(C)cccc1C [lidocaine]	0.12	about 1.5 times	0.04	0.027	enhancement of diffusion coefficient, TENS versus control (TENS field applied, fat free/low fat beef tissue): 4.4 times; increase in diffusion coefficient, magnets versus control (magnets applied, low fat beef tissue): 48%
		insulin glargine	0.008	three and a half	0.007	0.002	

Molecule	enhancement of diffusion coefficient, TENS versus control (cattle)	enhancement of diffusion coefficient, magnetic field versus control (cattle)	diffusion coefficient Dx [2] [mm^2/min]	enhancement of diffusion coefficient, magnetic field versus control [3]	diffusion coefficient Dx [4] [mm^2/min]	diffusion coefficient [5]	other results
COc1cc(CNC(=O)CCCC/C=C/C(C)C)ccc1O [capsaicin]	15 times		0.30	4.5 times	0.09		effect of TENS on the diffusion coefficient [1]: minimal effect; diffusion coefficient in lipid containing tissue versus lean tissue ([1]; cattle, 0.075 %): about 8 times; diffusion coefficient with magnets versus simple diffusion ([1]; cattle, 0.075 %): 3 times; depth of penetration (front) (TENS electric field, first 30 minutes, fat free tissue): 12 mm; time to totally penetrate the height of the stacks (TENS electric field, 15 mm stack, fat free tissue): 60 min; diffusion coefficient (cattle): 0.02; diffusion coefficient Dx (cattle, 0.075 %): 0.02 mm^2/min; depth of penetration (magnetic field, 30 minutes, fat free tissue): 7.5 mm; depth of penetration (magnetic field, end of 240 minutes, total tissue system, fat free tissue): 15 mm; rate of penetration, magnetic field versus control (magnetic field, fat free sample): doubled; depth of penetration (simple diffusion (control), 240 minutes, fat free tissue): 8 mm; depth of penetration (simple diffusion (control), after 30 minutes, fat free tissue): 4.5 mm
